Experimental data taken from patent EP4707280A1, “1,4-CINEOLE DERIVATIVE AND INTERMEDIATE THEREOF, HERBICIDE CONTAINING SAID DERIVATIVE AS ACTIVE INGREDIENT, METHOD FOR USING HERBICIDE, AND METHOD FOR PREPARING AGROCHEMICAL COMPOSITION” (HOKKO CHEMICAL INDUSTRY CO., LTD., priority 2023, dated 2024).

Tests used:
Type in all cases: in vivo
[1] = test system: Digitaria ciliaris; test: Test Example 7: herbicidal effect test by soil application in upland field (low dose); details: Digitaria ciliaris, 7.5 g per 10 ares, sprayed one day after sowing, 14 days after application, read-out: weed inhibition rate
Experimental: (§1) The present test was conducted in duplicate for each chemical concentration group, and the weed inhibition rate (%) was determined 14 days after chemical application using the following formula (Math. 1). [formula]
(§2) Pots with an area of 36 cm^2 were filled with upland soil (alluvial loam), twenty seeds each of weeds of Digitaria ciliaris, and Echinochloa crus-galli were uniformly mixed with the top 1 cm layer of soil and the surface was lightly pressed down. One day after sowing, an emulsifiable concentrate prepared according to Formulation Example 5 using the compound shown below was diluted with water, and the diluted solution was sprayed onto the soil surface at a rate of 100 liters per 10 ares. The amount of the active ingredient to be applied was equivalent to 7.5 g per 10 ares. Fourteen days after chemical application, the herbicidal effect was evaluated according to the same criteria as in Test Example 1.

[2] = test system: Echinochloa crus-galli; test: as above; details: Echinochloa crus-galli, 7.5 g per 10 ares, sprayed one day after sowing, 14 days after application, read-out: weed inhibition rate
Experimental: as §1, §2

[3] = test system: Digitaria ciliaris; test: Test Example 8: herbicidal effect test by stem and leaf treatment in upland field (low dose); details: Digitaria ciliaris; 7.5 g per 10 ares; sprayed seven days after sowing, upland soil; 14 days after application; read-out: weed inhibition rate
[4] = test system: Echinochloa crus-galli; test: as above; details: Echinochloa crus-galli; 7.5 g per 10 ares; sprayed seven days after sowing, upland soil; 14 days after application; read-out: weed inhibition rate
[5] = test system: Echinochloa crus-galli; test: Test Example 4: herbicidal effect test by stem and leaf treatment in upland field; details: Echinochloa crus-galli; 120 g per 10 ares; sprayed seven days after sowing, upland soil; 14 days after application; read-out: weed inhibition rate
[6] = test system: Digitaria ciliaris; test: Test Example 3: herbicidal effect test by soil application in upland field; details: Digitaria ciliaris, 120 g per 10 ares, sprayed one day after sowing, 14 days after application, read-out: weed inhibition rate
How it was run: (§3)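 Weed inhibition (%) was assessed 14 days after treatment, in duplicate per concentration group. Seeds had been mixed into the upper 1 cm of upland alluvial loam, and the soil surface was sprayed one day later with the diluted emulsifiable concentrate at 120 g active ingredient per 10 ares.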

[7] = test system: Echinochloa crus-galli; test: as above; details: Echinochloa crus-galli, 120 g per 10 ares, sprayed one day after sowing, 14 days after application, read-out: weed inhibition rate
How it was run: as §3

[8] = test system: Digitaria ciliaris; test: Test Example 4: herbicidal effect test by stem and leaf treatment in upland field; details: Digitaria ciliaris; 120 g per 10 ares; sprayed seven days after sowing, upland soil; 14 days after application; read-out: weed inhibition rate
[9] = test system: Echinochloa crus-galli var. formosensis; test: Test Example 1: herbicidal effect test by soil application in paddy rice; details: Echinochloa crus-galli, soil, 336 h; 120 g active ingredient per 10 ares; applied immediately after sowing, flooded pots; 14 days after application; read-out: weed inhibition rate
How it was run: (§4)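 Pre-emergence paddy treatment: diluted emulsifiable concentrate applied by dropper at 120 g a.i./10 ares immediately after sowing. Seeds (30 per species, 0–1 cm deep) in fertilized, puddled paddy soil kept under ~3 cm flood in a glass greenhouse.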

[10] = test system: Scirpus juncoides; test: as above; details: Schoenoplectiella juncoides, soil, 336 h; 120 g active ingredient per 10 ares; applied immediately after sowing, flooded pots; 14 days after application; read-out: weed inhibition rate
How it was run: as §4

[11] = test system: Echinochloa crus-galli var. formosensis; test: Test Example 2: herbicidal effect test by application during growth period of paddy rice; details: Echinochloa crus-galli; 120 g per 10 ares; applied seven days after sowing, flooded pots; 14 days after application; read-out: weed inhibition rate
How it was run: (§5)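 Flooded paddy pot test, greenhouse. Seeds 30/species, 0–1 cm depth, water ~3 cm. EC diluted in water, dropper-applied 7 d post-sowing at 120 g a.i./10 a. Inhibition rate (%) read 14 d after treatment; n=2.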

[12] = test system: Scirpus juncoides; test: as above; details: Schoenoplectiella juncoides; 120 g per 10 ares; applied seven days after sowing, flooded pots; 14 days after application; read-out: weed inhibition rate
How it was run: as §5

[13] = test system: Echinochloa crus-galli var. formosensis; test: Test Example 5: herbicidal effect test by soil application in paddy rice (low dose); details: Echinochloa crus-galli, soil, 336 h; 7.5 g per 10 ares; applied immediately after sowing, flooded pots; 14 days after application; read-out: weed inhibition rate
How it was run: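 Pre-emergence paddy test: seeds sown 0–1 cm (30 each), pots flooded ~3 cm, greenhouse. EC dilution dropped into water right after sowing, 7.5 g a.i./10 a. Duplicate pots; weed inhibition rate (%) by formula, day 14.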

[14] = test system: Echinochloa crus-galli var. formosensis; test: Test Example 6: herbicidal effect test by application during growth period of paddy rice (low dose); details: Echinochloa crus-galli; 7.5 g per 10 ares; applied seven days after sowing, flooded pots; 14 days after application; read-out: weed inhibition rate
How it was run: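 Emulsifiable concentrate, water-diluted, dropped onto flooded paddy pots 7 days post-sowing at 7.5 g active ingredient/10 a. Greenhouse-grown weeds; percent inhibition scored at day 14 after treatment.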

CC(C)[C@]12C[C@@H](OCc3cccs3)[C@](C)(C[C@@H]1Cl)O2 [1-661, (1R,2S,4S,5R)-2-chloro-1-isopropyl-4-methyl-5-(2-thienylmethoxy)-7-oxabicyclo[2.2.1]heptane]
≥ 80%: inhibition at 75 g/ha [1] | inhibition at 75 g/ha [2] | inhibition at 75 g/ha [3] | inhibition at 75 g/ha [4] | inhibition at 1200 g/ha [5] | inhibition at 1200 g/ha [6] | inhibition at 1200 g/ha [7] | inhibition at 1200 g/ha [8] | pest or weed control at 1200 g/ha [9] | pest or weed control at 1200 g/ha [10] | inhibition at 1200 g/ha [11] | inhibition at 1200 g/ha [12] | inhibition at 75 g/ha [13] | inhibition at 75 g/ha [14]

CC(C)C12C=CC(C)(O1)C(OCc1ccccc1)C2 (stereo not drawn) [3-752, 4-methyl-5-phenylmethoxy-1-isopropyl-7-oxabicyclo[2.2.1]hept-2-ene]
≥ 80%: inhibition at 75 g/ha [1] | inhibition at 75 g/ha [2] | inhibition at 75 g/ha [3] | inhibition at 75 g/ha [4] | inhibition at 1200 g/ha [5] | inhibition at 1200 g/ha [6] | inhibition at 1200 g/ha [7] | inhibition at 1200 g/ha [8] | pest or weed control at 1200 g/ha [9] | pest or weed control at 1200 g/ha [10] | inhibition at 1200 g/ha [11] | inhibition at 1200 g/ha [12] | inhibition at 75 g/ha [13] | inhibition at 75 g/ha [14]

CC(C)[C@]12C[C@@H](OCc3ccccc3)[C@](C)(C[C@@H]1I)O2 [1-740, (1R,2S,4S,5R)-5-benzyloxy-2-iodo-1-isopropyl-4-methyl-7-oxabicyclo[2.2.1]heptane]
≥ 80%: inhibition at 75 g/ha [1] | inhibition at 75 g/ha [2] | inhibition at 75 g/ha [3] | inhibition at 75 g/ha [4] | inhibition at 1200 g/ha [5] | inhibition at 1200 g/ha [6] | inhibition at 1200 g/ha [7] | inhibition at 1200 g/ha [8] | pest or weed control at 1200 g/ha [9] | pest or weed control at 1200 g/ha [10] | inhibition at 1200 g/ha [11] | inhibition at 1200 g/ha [12] | inhibition at 75 g/ha [13] | inhibition at 75 g/ha [14]

CC(C)C12C=CC(C)(O1)C(OCc1cccs1)C2 (stereo not drawn) [3-756, 1-isopropyl-4-methyl-5-(2-thienylmethoxy)-7-oxabicyclo[2.2.1]hept-2-ene]
≥ 80%: inhibition at 75 g/ha [1] | inhibition at 75 g/ha [2] | inhibition at 75 g/ha [3] | inhibition at 75 g/ha [4] | inhibition at 1200 g/ha [5] | inhibition at 1200 g/ha [6] | inhibition at 1200 g/ha [7] | inhibition at 1200 g/ha [8] | pest or weed control at 1200 g/ha [9] | pest or weed control at 1200 g/ha [10] | inhibition at 1200 g/ha [11] | inhibition at 1200 g/ha [12] | inhibition at 75 g/ha [13] | inhibition at 75 g/ha [14]

CC(C)C12CC(OCc3c(Cl)cccc3Cl)C(C)(CC1Cl)O2 (stereo not drawn) [1-1314, 5-chloro-2-[(2,6-dichlorophenyl)methoxy]-1-methyl-4-isopropyl-7-oxabicyclo[2.2.1]heptane]
≥ 80%: inhibition at 75 g/ha [1] | inhibition at 75 g/ha [2] | inhibition at 75 g/ha [3] | inhibition at 75 g/ha [4] | inhibition at 1200 g/ha [5] | inhibition at 1200 g/ha [6] | inhibition at 1200 g/ha [7] | inhibition at 1200 g/ha [8] | pest or weed control at 1200 g/ha [9] | pest or weed control at 1200 g/ha [10] | inhibition at 1200 g/ha [11] | inhibition at 1200 g/ha [12] | inhibition at 75 g/ha [13] | inhibition at 75 g/ha [14]

CC#CCOC1CC2(C(C)C)OC1(C)CC2I (stereo not drawn) [1-1402, 5-but-2-ynoxy-2-iodo-1-isopropyl-4-methyl-7-oxabicyclo[2.2.1]heptane]
≥ 80%: inhibition at 75 g/ha [1] | inhibition at 75 g/ha [2] | inhibition at 75 g/ha [3] | inhibition at 75 g/ha [4] | inhibition at 1200 g/ha [5] | inhibition at 1200 g/ha [6] | inhibition at 1200 g/ha [7] | inhibition at 1200 g/ha [8] | pest or weed control at 1200 g/ha [9] | pest or weed control at 1200 g/ha [10] | inhibition at 1200 g/ha [11] | inhibition at 1200 g/ha [12] | inhibition at 75 g/ha [13] | inhibition at 75 g/ha [14]
